Data taken from US11111251B2, “Positive allosteric modulators of the muscarinic acetylcholine receptor M1” (Vanderbilt University, priority 2016, dated 2021).
Read-outs that look alike come from different tables or passages of the source.

Biological target: T1, human mAChR M1 (Homo sapiens, UniProt P11229)
T1 sequence (P11229 1-460): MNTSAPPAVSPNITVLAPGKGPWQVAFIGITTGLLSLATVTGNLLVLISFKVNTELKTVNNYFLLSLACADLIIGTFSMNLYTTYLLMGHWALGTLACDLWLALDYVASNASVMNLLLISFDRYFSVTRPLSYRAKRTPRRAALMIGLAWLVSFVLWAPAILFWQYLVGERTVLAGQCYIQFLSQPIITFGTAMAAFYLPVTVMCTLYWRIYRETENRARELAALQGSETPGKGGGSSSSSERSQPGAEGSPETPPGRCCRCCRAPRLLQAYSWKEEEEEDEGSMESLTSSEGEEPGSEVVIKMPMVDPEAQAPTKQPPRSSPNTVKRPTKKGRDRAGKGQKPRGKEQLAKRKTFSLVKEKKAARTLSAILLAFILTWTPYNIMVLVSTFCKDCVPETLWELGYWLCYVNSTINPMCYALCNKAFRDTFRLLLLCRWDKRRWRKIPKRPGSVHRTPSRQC
Assay: mAChR M1 cell-based functional assay: calcium mobilization, positive allosteric modulator mode (increase in EC20 acetylcholine response)
Conditions: for Emax: read-out: Human M1 Emax (%)
How it was run: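 PAM potency reflects the concentration-dependent increase in calcium response to an EC20 acetylcholine challenge, given 144 s into a 300 s read after compound addition at 4 s (EC80 follows at 230 s). Cells were hM1-expressing CHO-K1, loaded 50 min with Fluo-4 AM. Curves used 11 points at 1:3 dilutions and four-parameter logistic fitting.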

[1] = Table 2, human M1, read-out: Human M1 EC50
[2] = Table 1, mAChR M1 cell-based functional assay, PAM mode, species not given, read-out: EC50

| SMILES | EC50 [1] | Emax (Table 2, human M1) | EC50 [2] |
| --- | --- | --- | --- |
| Cn1cc(-c2ccc(Cc3cc(C(=O)NCC4CCOC4)nc4ccsc34)cn2)cn1 (stereo not drawn) [Compound 348, 7-[[6-(1-methylpyrazol-4-yl)-3-pyridyl]methyl]-N-(tetrahydrofuran-3-ylmethyl)thieno[3,2-b]pyridine-5-carboxamide] | 128 nM | 85.6% | – |
| Cn1ccc(-c2ccc(Cc3cc(C(=O)NC[C@@H]4CCOC4)nc4ccsc34)cn2)n1 [Compound 357] | 458 nM | 86.5% | – |
| Cn1cc(-c2ccc(Cc3cc(C(=O)N[C@@H]4CCOC4)nc4ccsc34)cn2)cn1 [Compound 344, 7-[[6-(1-methylpyrazol-4-yl)-3-pyridyl]methyl]-N-[(3R)-tetrahydrofuran-3-yl]thieno[3,2-b]pyridine-5-carboxamide] | 798 nM | 85.5% | – |
| Cc1ccc(Cc2cc(C(=O)NC3C4CC5C[C@H]3CC(O)(C5)C4)nc3ccsc23)cn1 (stereo partly drawn) [Compound 64, N-[(1S)-5-hydroxy-2-adamantyl]-7-[(6-methyl-3-pyridyl)methyl]thieno[3,2-b]pyridine-5-carboxamide] | 962 nM | 70.7% | – |
| Cc1nc(-c2ccc(Cc3cc(C(=O)NC4CCN(C)CC4)nc4ccsc34)cc2)cs1 [Compound 187, N-(1-methyl-4-piperidyl)-7-[[4-(2-methylthiazol-4-yl)phenyl]methyl]thieno[3,2-b]pyridine-5-carboxamide] | 3200 nM | 72.1% | – |
| O=C(NCC1CCCCO1)c1cc(Cc2ccc(-c3nccs3)cc2)c2sccc2n1 (stereo not drawn) [Compound 375, N-(tetrahydropyran-2-ylmethyl)-7-[(4-thiazol-2-ylphenyl)methyl]thieno[3,2-b]pyridine-5-carboxamide] | > 10000 nM | 77.4% | – |
| Cn1cc(-c2cc(F)c(Cc3cc(C(=O)N[C@H]4CCOC[C@@H]4O)nc4ccsc34)c(F)c2)cn1 [Compound 59, 7-[[2,6-difluoro-4-(1-methylpyrazol-4-yl)phenyl]methyl]-N-[(3R,4S)-3-hydroxytetrahydropyran-4-yl]thieno[3,2-b]pyridine-5-carboxamide] | 2840 nM | 88.5% | – |
| Cn1cc(-c2ccc(Cc3cc(C(=O)NC[C@@H]4CCCO4)nc4ccsc34)cn2)cn1 [Compound 349, 7-[[6-(1-methylpyrazol-4-yl)-3-pyridyl]methyl]-N-[[(2S)-tetrahydrofuran-2-yl]methyl]thieno[3,2-b]pyridine-5-carboxamide] | 25.4 nM | 89.8% | – |
| O=C(NC1C2CC3C[C@H]1CC(O)(C3)C2)c1cc(Cc2ccc(C(F)(F)F)nc2)c2sccc2n1 (stereo partly drawn) [Compound 96, N-[(1S)-5-hydroxy-2-adamantyl]-7-[[6-(trifluoromethyl)-3-pyridyl]methyl]thieno[3,2-b]pyridine-5-carboxamide] | > 10000 nM | 43.6% | – |
| O=C(N[C@@H]1CCOC1)c1cc(Cc2ccc(-c3cncs3)cc2)c2sccc2n1 [Compound 400] | 4210 nM | 51.4% | – |
| CC(NC(=O)c1cc(Cc2ccc(-n3cccn3)cc2)c2sccc2n1)C1CCCO1 (stereo not drawn) [Compound 446, 7-[(4-pyrazol-1-ylphenyl)methyl]-N-(1-tetrahydrofuran-2-ylethyl)thieno[3,2-b]pyridine-5-carboxamide] | 922 nM | 72.8% | – |
| Cn1ccc(-c2ccc(Cc3cc(C(=O)N[C@H]4CCOC[C@@H]4O)nc4ccsc34)cn2)n1 [Compound 353, N-[(3R,4S)-3-hydroxytetrahydropyran-4-yl]-7-[[6-(1-methylpyrazol-3-yl)-3-pyridyl]methyl]thieno[3,2-b]pyridine-5-carboxamide] | 5.05 nM | 62.1% | – |
| O=C(N[C@H]1CC[C@@H]1O)c1cc(Cc2ccc(C(F)(F)F)nc2)c2sccc2n1 [Compound 87, N-[(1S,2S)-2-hydroxycyclobutyl]-7-[[6-(trifluoromethyl)-3-pyridyl]methyl]thieno[3,2-b]pyridine-5-carboxamide] | 3130 nM | 84.9% | – |
| O=C(NC1CCCCNC1=O)c1cc(Cc2ccc(-n3cccn3)cc2)c2sccc2n1 (stereo not drawn) [Compound 79, N-(2-oxoazepan-3-yl)-7-[(4-pyrazol-1-ylphenyl)methyl]thieno[3,2-b]pyridine-5-carboxamide] | 397 nM | 70.5% | – |
| COCCNC(=O)c1cc(Cc2ccc(-c3cnn(C)c3)nc2)c2sccc2n1 [Compound 342, N-(2-methoxyethyl)-7-[[6-(1-methylpyrazol-4-yl)-3-pyridyl]methyl]thieno[3,2-b]pyridine-5-carboxamide] | 289 nM | 89.5% | – |
| Cn1cc2c(-c3ccc(Oc4cc(C(=O)N[C@H]5CCOC[C@@H]5O)nc5ccsc45)c(F)c3)cccc2n1 [Compound 13, 7-[2-fluoro-4-(2-methylindazol-4-yl)phenoxy]-N-[(3R,4S)-3-hydroxytetrahydropyran-4-yl]thieno[3,2-b]pyridine-5-carboxamide] | – | – | 4120 nM |
| CC1CC(NC(=O)c2cc(Cc3ccc(-c4ccn(C)n4)nc3)c3sccc3n2)CC(C)O1 (stereo not drawn) [Compound 377, N-(2,6-dimethyltetrahydropyran-4-yl)-7-[[6-(1-methylpyrazol-3-yl)-3-pyridyl]methyl]thieno[3,2-b]pyridine-5-carboxamide] | 412 nM | 58.7% | – |
| Cc1nc(-c2ccc(Cc3cc(C(=O)NC4(C)COC4)nc4ccsc34)cc2)cs1 [Compound 177, N-(3-methyloxetan-3-yl)-7-[[4-(2-methylthiazol-4-yl)phenyl]methyl]thieno[3,2-b]pyridine-5-carboxamide] | > 10000 nM | 39.7% | – |
| Cn1ccc2nc(C(=O)N[C@@H]3CCCOC3)cc(Cc3ccc(-c4cscn4)cc3)c21 [Compound 463, 1-methyl-N-[(3R)-tetrahydropyran-3-yl]-7-[(4-thiazol-4-ylphenyl)methyl]pyrrolo[3,2-b]pyridine-5-carboxamide] | 1010 nM | 71.9% | – |
| O=C(N[C@H]1CCOC[C@@H]1O)c1cc(Cc2c(F)cc(-c3cscn3)cc2F)c2sccc2n1 [Compound 270, 7-[(2,6-difluoro-4-thiazol-4-yl-phenyl)methyl]-N-[(3R,4S)-3-hydroxytetrahydropyran-4-yl]thieno[3,2-b]pyridine-5-carboxamide] | 39.7 nM | 78.5% | – |
| Cc1nn(C)cc1-c1ccc(Cc2cc(C(=O)N[C@H]3CCOC[C@@H]3O)nc3ccsc23)cc1 [Compound 248, 7-[[4-(1,3-dimethylpyrazol-4-yl)phenyl]methyl]-N-[(3R,4S)-3-hydroxytetrahydropyran-4-yl]thieno[3,2-b]pyridine-5-carboxamide] | 4880 nM | 71.3% | – |

Next, values leading:

| EC50 [1] | Emax (Table 2, human M1) | EC50 [2] | SMILES |
| --- | --- | --- | --- |
| 975 nM | 80.8% | – | Cn1cc(-c2ccc(Cc3cc(C(=O)N[C@H]4CCOC4)nc4ccsc34)cn2)cn1 [Compound 343, 7-[[6-(1-methylpyrazol-4-yl)-3-pyridyl]methyl]-N-[(3S)-tetrahydrofuran-3-yl]thieno[3,2-b]pyridine-5-carboxamide] |
| 9700 nM | 22.8% | – | Cc1ccc(Cc2cc(C(=O)NC3C(=O)Nc4ccccc43)nc3ccsc23)cn1 (stereo not drawn) [Compound 68, 7-[(6-methyl-3-pyridyl)methyl]-N-(2-oxoindolin-3-yl)thieno[3,2-b]pyridine-5-carboxamide] |
| – | – | 4960 nM | Cc1ccc(Cc2cc(C(=O)NC3CCOCC3)nc3ccsc23)cn1 [Compound 50, 7-[(6-methyl-3-pyridyl)methyl]-N-tetrahydropyran-4-yl-thieno[3,2-b]pyridine-5-carboxamide] |
| > 10000 nM | 74.3% | – | Cc1ncc(Cc2cc(C(=O)N[C@@H]3COCC[C@H]3O)nc3ccsc23)s1 [Compound 138, N-[(3R,4R)-4-hydroxytetrahydropyran-3-yl]-7-[(2-methylthiazol-5-yl)methyl]thieno[3,2-b]pyridine-5-carboxamide] |
| 483 nM | 37.5% | – | Cn1ccc2nc(C(=O)NCC3CCOCC3)cc(Cc3ccc(-c4nccs4)cc3)c21 [Compound 486, 1-methyl-N-(tetrahydropyran-4-ylmethyl)-7-[(4-thiazol-2-ylphenyl)methyl]pyrrolo[3,2-b]pyridine-5-carboxamide] |
| 2400 nM | 72.5% | – | Cc1ccc(Cc2cc(C(=O)NC3CCCCNC3=O)nc3c(C)csc23)cn1 (stereo not drawn) [Compound 111, 3-methyl-7-[(6-methyl-3-pyridyl)methyl]-N-(2-oxoazepan-3-yl)thieno[3,2-b]pyridine-5-carboxamide] |
| 141 nM | 80.5% | – | Cc1nc(-c2ccc(Cc3cc(C(=O)N[C@@H]4CCC[C@H]4O)nc4ccsc34)cc2)co1 [Compound 159, N-[(1R,2R)-2-hydroxycyclopentyl]-7-[[4-(2-methyloxazol-4-yl)phenyl]methyl]thieno[3,2-b]pyridine-5-carboxamide] |
| 1280 nM | 80.6% | – | O=C(NC1CCN2CCCC12)c1cc(Cc2ccc(-c3cscn3)cc2)c2sccc2n1 (stereo not drawn) [Compound 220, N-(hexahydro-1H-pyrrolizin-1-yl)-7-[(4-thiazol-4-ylphenyl)methyl]thieno[3,2-b]pyridine-5-carboxamide] |
| – | – | 117 nM | Cc1ccc(Cc2cc(C(=O)N[C@H]3CCCCC[C@@H]3O)nc3ccsc23)cn1 [Compound 47, N-[(1S,2S)-2-hydroxycycloheptyl]-7-[(6-methyl-3-pyridyl)methyl]thieno[3,2-b]pyridine-5-carboxamide] |
